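The concentration for 50% growth inhibition is given as GI50. TGI marks complete inhibition of growth.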
Tests used:
Test in all cases: growth of human tumour cells (NCI), 384-well format
[1] = system: OVCAR-8 ovarian
[2] = system: MALME-3M melanoma
[3] = system: M14 melanoma
[4] = system: OVCAR-4 ovarian
[5] = system: EKVX NSCLC
[6] = system: A549 NSCLC
[7] = system: A498 renal
[8] = system: SK-MEL-5 melanoma
[9] = system: SW-620 colon
[10] = system: SR leukemia
[11] = system: MOLT-4 leukemia
[12] = system: OVCAR-3 ovarian
[13] = system: MDA-MB-468 breast
[14] = system: PC-3 prostate
[15] = system: BT-549 breast
[16] = system: HCC-2998 colon
[17] = system: NCI-H23 lung
[18] = system: MDA-MB-435 melanoma
[19] = system: DU-145 prostate
[20] = system: UACC-257 melanoma
[21] = system: RXF 393 renal
[22] = system: MCF7 breast
[23] = system: HS 578T breast
[24] = system: HCT-15 colon
[25] = system: OVCAR-5 ovarian
[26] = system: MDA-MB-231 breast
[27] = system: KM12 colon
[28] = system: RPMI-8226 leukemia
[29] = system: HOP-62 NSCLC
[30] = system: SK-OV-3 ovarian
[31] = system: SNB-75 CNS
[32] = system: SF-268 CNS
[33] = system: SN12C renal
[34] = system: NCI-H522 lung
[35] = system: 786-0 renal
[36] = system: UO-31 renal
[37] = system: COLO 205 colon
[38] = system: SK-MEL-28 melanoma
[39] = system: NCI-H322M lung
[40] = system: HT29 colon
[41] = system: K-562 leukemia
[42] = system: CCRF-CEM leukemia
[43] = system: SF-539 CNS
[44] = system: SF-295 CNS
[45] = system: UACC-62 melanoma
[46] = system: IGROV1 ovarian
[47] = system: NCI/ADR-RES ovarian
[48] = system: HOP-92 NSCLC
[49] = system: HL-60(TB) leukemia

SMILES: CC[C@H](Nc1nc(NCc2cnc(C)cc2C)c2ncn(C(C)C)c2n1)[C@@H](C)O
- GI50 [1]: 225 nM
- TGI [1]: 551 nM
- GI50 [2]: 298 nM
- TGI [2]: 967 nM
- GI50 [3]: 156 nM
- TGI [3]: 533 nM
- GI50 [4]: 316 nM
- TGI [4]: 1290 nM
- GI50 [5]: 267 nM
- TGI [5]: 757 nM
- GI50 [6]: 315 nM
- TGI [6]: > 100000 nM
- GI50 [7]: 240 nM
- TGI [7]: 648 nM
- GI50 [8]: 139 nM
- TGI [8]: 291 nM
- GI50 [9]: 205 nM
- TGI [9]: 780 nM
- GI50 [10]: 137 nM
- TGI [10]: 269 nM
- GI50 [11]: 184 nM
- TGI [11]: 334 nM
- GI50 [12]: 232 nM
- TGI [12]: 516 nM
- GI50 [13]: 182 nM
- TGI [13]: 334 nM
- GI50 [14]: 224 nM
- TGI [14]: 594 nM
- GI50 [15]: 138 nM
- TGI [15]: 294 nM
- GI50 [16]: 159 nM
- TGI [16]: 380 nM
- GI50 [17]: 173 nM
- TGI [17]: 343 nM
- GI50 [18]: 245 nM
- TGI [18]: 693 nM
- GI50 [19]: 302 nM
- TGI [19]: 1260 nM
- GI50 [20]: 232 nM
- TGI [20]: 445 nM
- GI50 [21]: 175 nM
- TGI [21]: 349 nM
- GI50 [22]: 333 nM
- TGI [22]: 1330 nM
- GI50 [23]: 134 nM
- TGI [23]: 291 nM
- GI50 [24]: 296 nM
- TGI [24]: 817 nM
- GI50 [25]: 248 nM
- TGI [25]: 691 nM
- GI50 [26]: 196 nM
- TGI [26]: 767 nM
- GI50 [27]: 239 nM
- TGI [27]: 737 nM
- GI50 [28]: 149 nM
- TGI [28]: 284 nM
- GI50 [29]: 225 nM
- TGI [29]: 638 nM
- GI50 [30]: 452 nM
- TGI [30]: 3390 nM
- GI50 [31]: 183 nM
- TGI [31]: 424 nM
- GI50 [32]: 166 nM
- TGI [32]: 386 nM
- GI50 [33]: 217 nM
- TGI [33]: 487 nM
- GI50 [34]: 180 nM
- TGI [34]: 341 nM
- GI50 [35]: 227 nM
- TGI [35]: 657 nM
- GI50 [36]: 353 nM
- TGI [36]: > 100000 nM
- GI50 [37]: 206 nM
- TGI [37]: 508 nM
- GI50 [38]: 163 nM
- TGI [38]: 335 nM
- GI50 [39]: 226 nM
- TGI [39]: 501 nM
- GI50 [40]: 198 nM
- TGI [40]: 472 nM
- GI50 [41]: 286 nM
- TGI [41]: 960 nM
- GI50 [42]: 160 nM
- TGI [42]: 307 nM
- GI50 [43]: 185 nM
- TGI [43]: 383 nM
- GI50 [44]: 224 nM
- TGI [44]: 522 nM
- GI50 [45]: 171 nM
- TGI [45]: 397 nM
- GI50 [46]: 277 nM
- TGI [46]: 797 nM
- GI50 [47]: 1540 nM
- TGI [47]: 4670 nM
- GI50 [48]: 230 nM
- TGI [48]: 569 nM
- GI50 [49]: 148 nM
- TGI [49]: 282 nM

From PubChem BioAssay (NCI)
